Assay results reported in PubChem BioAssay (NCI).
Values joined by “and” are separate entries in the source; they are usually repeats but may differ in a detail not shown here. Equal entries are not always repeated.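 In this assay, cells in 96-well plates receive the compound at five concentrations for 48 hours. Endpoints are linearly interpolated between the surrounding concentrations. GI50 is the concentration that inhibits growth by half. TGI: total growth inhibition.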

System: MDA-MB-468 breast
Experiment: NCI anticancer screen, dose series, 48 h

Point of comparison: `COCCOCCOCCOCCOC(=O)OC[n+]1ccc(NC(=NCCCCCCOc2ccc(Cl)cc2)NC#N)cc1`, GI50 1420 nM. Against it:
- COC(=O)c1cc([N+](=O)[O-])cc([N+](=O)[O-])c1Cl — within 1.5-fold, 1220 nM
- COC1=C(OC)C(=O)C(CCCCCCCCCCO)=C(C)C1=O — within 1.5-fold, 1660 nM
- CCn1ccnc1C(=O)/C=C/c1ccc(CC(=O)Nc2ccc(F)cc2)cc1 — within 1.5-fold, 1990 nM
- COc1ccc(/C=N\Nc2nc(SCC(C)C)nc(-c3ccc(OC)cc3)c2C#N)cc1 — 3.1-fold higher, 4360 nM
- Clc1ccc([I+]c2ccc(Cl)cc2Cl)c(Cl)c1 — within 1.5-fold, 1330 nM
- COc1ccc(S(=O)(=O)N2CCNCC2)cc1OC — higher, > 100000 nM
- N#Cc1cccc(Nc2ncc(-c3ccccc3)o2)c1 — 3.7-fold higher, 5290 nM
- N#C/C(=C\c1cc2ccc(N3CCC3)cc2oc1=O)C(=O)N(CC(=O)O)CC(=O)O — higher, > 100000 nM
- CC(=O)N(O)c1ccc(/C=C/c2ccccc2)cc1 — 21-fold lower, 68.6 nM
- Cc1ccc(-n2c(-c3cc4c([nH]c5ccccc54)c(-c4cccc(O)c4)n3)n[nH]c2=S)cc1 — 5.1-fold lower, 280 nM
- COc1ccc(C2CC(c3ccc(N(C)C)cc3)=NN2c2ccc(S(N)(=O)=O)cc2)cc1 (stereo not drawn) — 2.3-fold higher, 3280 nM
- Cn1c(C(=O)c2cccc3ccccc23)nc2ccccc21 — 4.2-fold higher, 5920 nM
- S=C(NCc1ccc2c(c1)OCO2)N1CCN(c2ncnc3c2oc2ccccc23)CC1 — 3.1-fold lower, 456 nM
- Nc1nc2ccccc2c2c1S(=O)(=O)c1ccc(Cl)cc1C2=O — 1.9-fold lower, 735 nM
- CC(C)N(Cc1ccc(F)cc1)c1ccc(CO)c(Cl)c1 — 84-fold lower, 17 nM
- O=S(=O)(NCCCNc1nccc(-c2c(-c3ccc(F)cc3)nc3sccn23)n1)c1ccc(F)cc1 — 3.2-fold higher, 4550 nM
- CCN(Cc1ccc(F)cc1)c1ccc(CO)c(C(F)(F)F)c1 — 8.6-fold lower, 165 nM
- C=C1C(=O)O[C@H]2[C@H]1CC/C(COC(=O)NCc1c[nH]c3ccc(F)cc13)=C\CC[C@@]1(C)O[C@@H]21 — within 1.5-fold, 1090 nM
- COc1ccc(COc2cc3oc(=O)c4cc(C(C)O)ccc4c3cc2OC)cc1 (stereo not drawn) — 6.5-fold higher, 9200 nM
- NCc1ccc(-c2nc(-c3ccc(Cl)c(O)c3)c(-c3ccncc3)[nH]2)cc1 — higher, > 12200 nM
- C[C@@H](NC(=O)c1ccc(F)cc1)c1ccc2c(c1)CCN2C(=O)C1CCOCC1 — higher, > 100000 nM
- C=CC(=O)N[C@@H](/C=C/C(=O)OCC)Cc1ccc(-c2cc(Cl)cc(Cl)c2)cc1 — 3.6-fold higher, 5170 nM
- N#Cc1c(NC(=O)c2ccccc2F)sc2c1CCCC2 — 4-fold higher, 5650 nM
- C[C@H]1CN(C2COC2)CCN1c1ccc(Nc2cc(-c3ccnc(N4CCn5c(cc6c5CC(C)(C)C6)C4=O)c3CO)cn(C)c2=O)nc1 — 16-fold higher, 22900 nM
- CC1SC(c2ccc(Cl)cc2)N(CCc2cccs2)C1=O (stereo not drawn) — within 1.5-fold, 1470 nM
- O=C(NCCCNc1cc(-c2cn(-c3ccccc3)nc2-c2cccc(O)c2)ccn1)Nc1cccc(C(F)(F)F)c1 — within 1.5-fold, 1610 nM
- O=C1/C(=C/c2ccccc2[N+](=O)[O-])COc2ccc(O)cc21 — within 1.5-fold, 1100 nM
- CC1CCN(CCOc2ccc(CNc3ccc4nc(CCC5CCCCC5)[nH]c4c3)cc2)CC1 — within 1.5-fold, 1550 nM
- C=CCN(CC=C)C(=O)[C@H](CC)[C@@H]1CC[C@@H](C)[C@@H]([C@H](C)[C@@H](O)[C@@H](C)C(=O)[C@H](CC)C2O[C@]3(C=C[C@@H](O)[C@]4(CC[C@@](C)([C@H]5CC[C@](O)(CC)[C@H](C)O5)O4)O3)[C@H](C)C[C@@H]2C)O1 (stereo partly drawn) — within 1.5-fold, 1530 nM
- Nc1nc(-c2ccc(Cl)cc2)nc2c1sc(=S)n2-c1ccccc1 — 2.9-fold higher, 4060 nM
- C=CC[N+]1(CC)CCN=C1CCCCCCCCCCCCCCCCC (stereo not drawn) — 11-fold lower, 135 nM
- c1ccc(C2CCCCC2)c(OCCCCCN2CCNCC2)c1 — within 1.5-fold, 1770 nM
- COc1cc(C(=O)/C=C/c2c(C(F)(F)F)nc3ccccn23)cc(OC)c1OC — within 1.5-fold, 2120 nM
- COc1cc(-c2ncn(/C=C\c3nnco3)n2)cc(C(F)(F)F)c1 — 2.7-fold lower, 518 nM
- Fc1ccc2nc(-c3nc(-c4ccccc4)n4ccccc34)[nH]c2c1 — within 1.5-fold, 1490 nM
- COc1ccc(-c2c3c(N)c4c(nc3nc3c2c(C)nn3-c2ccccc2)CCCC4)cc1 — 1.6-fold higher, 2330 nM
- O=C1c2ccccc2C(=O)c2c1cc1c(c2[N+](=O)[O-])OCO1 — within 1.5-fold, 1640 nM
- COc1ccc2c(c1)C(=O)c1c-2c(=O)n(CCCN(C)C)c2cc(OC)c(OC)cc12 — within 1.5-fold, 1430 nM
- COc1cc2c(cc1NC(=O)C(Cl)Cl)-c1ccc(NC(=O)C(Cl)Cl)cc1C2 — 5.1-fold lower, 280 nM
- Clc1nc(Cl)c2ncn(CCOCCn3cnc4c(Cl)nc(Cl)nc43)c2n1 — 7.9-fold lower, 179 nM
- O=S(=O)(NCCCNc1cc(-c2cn(-c3ccccc3)nc2-c2cccc(O)c2)ccn1)c1ccc(F)cc1 — 1.8-fold higher, 2550 nM

Point of comparison: `COc1cc(-c2ncn(/C=C\c3nnco3)n2)cc(C(F)(F)F)c1`, TGI 3960 nM. Against it:
- COC(=O)c1cc([N+](=O)[O-])cc([N+](=O)[O-])c1Cl — 1.5-fold lower, 2570 nM
- COC1=C(OC)C(=O)C(CCCCCCCCCCO)=C(C)C1=O — within 1.5-fold, 3760 nM
- O=C(c1cc(Cc2n[nH]c(=O)c3ccccc23)ccc1F)N1CCN(C(=O)C2CC2)CC1 — higher, > 100000 nM
- CCn1ccnc1C(=O)/C=C/c1ccc(CC(=O)Nc2ccc(F)cc2)cc1 — within 1.5-fold, 4940 nM
- COc1ccc(/C=N\Nc2nc(SCC(C)C)nc(-c3ccc(OC)cc3)c2C#N)cc1 — 7.1-fold higher, 28000 nM
- Clc1ccc([I+]c2ccc(Cl)cc2Cl)c(Cl)c1 — within 1.5-fold, 2810 nM
- COc1ccc(S(=O)(=O)N2CCNCC2)cc1OC — higher, > 100000 nM
- N#Cc1cccc(Nc2ncc(-c3ccccc3)o2)c1 — higher, > 25000 nM
- N#C/C(=C\c1cc2ccc(N3CCC3)cc2oc1=O)C(=O)N(CC(=O)O)CC(=O)O — higher, > 100000 nM
- CC(=O)N(O)c1ccc(/C=C/c2ccccc2)cc1 — 4.2-fold lower, 932 nM
- Cc1ccc(-n2c(-c3cc4c([nH]c5ccccc54)c(-c4cccc(O)c4)n3)n[nH]c2=S)cc1 — 3.4-fold lower, 1180 nM
- COc1ccc(C2CC(c3ccc(N(C)C)cc3)=NN2c2ccc(S(N)(=O)=O)cc2)cc1 (stereo not drawn) — higher, > 100000 nM
- Cn1c(C(=O)c2cccc3ccccc23)nc2ccccc21 — higher, > 100000 nM
- S=C(NCc1ccc2c(c1)OCO2)N1CCN(c2ncnc3c2oc2ccccc23)CC1 — higher, > 100000 nM
- Nc1nc2ccccc2c2c1S(=O)(=O)c1ccc(Cl)cc1C2=O — 1.8-fold lower, 2150 nM
- CC(C)N(Cc1ccc(F)cc1)c1ccc(CO)c(Cl)c1 — 86-fold lower, 46.3 nM
- O=S(=O)(NCCCNc1nccc(-c2c(-c3ccc(F)cc3)nc3sccn23)n1)c1ccc(F)cc1 — higher, > 100000 nM
- CCN(Cc1ccc(F)cc1)c1ccc(CO)c(C(F)(F)F)c1 — 7.9-fold lower, 499 nM
- C=C1C(=O)O[C@H]2[C@H]1CC/C(COC(=O)NCc1c[nH]c3ccc(F)cc13)=C\CC[C@@]1(C)O[C@@H]21 — within 1.5-fold, 2910 nM
- COc1ccc(COc2cc3oc(=O)c4cc(C(C)O)ccc4c3cc2OC)cc1 (stereo not drawn) — higher, > 100000 nM
- NCc1ccc(-c2nc(-c3ccc(Cl)c(O)c3)c(-c3ccncc3)[nH]2)cc1 — higher, > 25000 nM
- C[C@@H](NC(=O)c1ccc(F)cc1)c1ccc2c(c1)CCN2C(=O)C1CCOCC1 — higher, > 100000 nM
- C=CC(=O)N[C@@H](/C=C/C(=O)OCC)Cc1ccc(-c2cc(Cl)cc(Cl)c2)cc1 — 12-fold higher, 48100 nM
- N#Cc1c(NC(=O)c2ccccc2F)sc2c1CCCC2 — higher, > 25000 nM
- C[C@H]1CN(C2COC2)CCN1c1ccc(Nc2cc(-c3ccnc(N4CCn5c(cc6c5CC(C)(C)C6)C4=O)c3CO)cn(C)c2=O)nc1 — 23-fold higher, 89400 nM
- CC1(C)[C@H](O)[C@H](F)C[C@@]2(C)Oc3ccc(C(=O)Nc4ccc5c(c4)NC(=O)C54CCN(CCCCC#N)CC4)cc3C[C@H]12 — 2.7-fold higher, 10700 nM
- CC1SC(c2ccc(Cl)cc2)N(CCc2cccs2)C1=O (stereo not drawn) — within 1.5-fold, 3750 nM
- O=C(NCCCNc1cc(-c2cn(-c3ccccc3)nc2-c2cccc(O)c2)ccn1)Nc1cccc(C(F)(F)F)c1 — 1.6-fold higher, 6150 nM
- COc1ccc(-c2[nH]c3ccccc3c2/C=C(\C#N)S(=O)(=O)c2ccccc2)cc1 — 2.1-fold lower, 1930 nM
- O=C1/C(=C/c2ccccc2[N+](=O)[O-])COc2ccc(O)cc21 — within 1.5-fold, 4560 nM
- CC1CCN(CCOc2ccc(CNc3ccc4nc(CCC5CCCCC5)[nH]c4c3)cc2)CC1 — within 1.5-fold, 3250 nM
- C=CCN(CC=C)C(=O)[C@H](CC)[C@@H]1CC[C@@H](C)[C@@H]([C@H](C)[C@@H](O)[C@@H](C)C(=O)[C@H](CC)C2O[C@]3(C=C[C@@H](O)[C@]4(CC[C@@](C)([C@H]5CC[C@](O)(CC)[C@H](C)O5)O4)O3)[C@H](C)C[C@@H]2C)O1 (stereo partly drawn) — within 1.5-fold, 4840 nM
- Nc1nc(-c2ccc(Cl)cc2)nc2c1sc(=S)n2-c1ccccc1 — 5.9-fold higher, 23200 nM
- C=CC[N+]1(CC)CCN=C1CCCCCCCCCCCCCCCCC (stereo not drawn) — 7.4-fold lower, 538 nM
- c1ccc(C2CCCCC2)c(OCCCCCN2CCNCC2)c1 — within 1.5-fold, 4200 nM
- COCCOCCOCCOCCOC(=O)OC[n+]1ccc(NC(=NCCCCCCOc2ccc(Cl)cc2)NC#N)cc1 — 2.5-fold higher, 9990 nM
- COc1cc(C(=O)/C=C/c2c(C(F)(F)F)nc3ccccn23)cc(OC)c1OC — within 1.5-fold, 4720 nM
- Fc1ccc2nc(-c3nc(-c4ccccc4)n4ccccc34)[nH]c2c1 — within 1.5-fold, 4020 nM
- COc1ccc(-c2c3c(N)c4c(nc3nc3c2c(C)nn3-c2ccccc2)CCCC4)cc1 — 1.9-fold higher, 7670 nM
- O=C1c2ccccc2C(=O)c2c1cc1c(c2[N+](=O)[O-])OCO1 — within 1.5-fold, 4410 nM
- COc1ccc2c(c1)C(=O)c1c-2c(=O)n(CCCN(C)C)c2cc(OC)c(OC)cc12 — 2.5-fold higher, 9920 nM
- COc1cc2c(cc1NC(=O)C(Cl)Cl)-c1ccc(NC(=O)C(Cl)Cl)cc1C2 — 4.3-fold lower, 931 nM
- Clc1nc(Cl)c2ncn(CCOCCn3cnc4c(Cl)nc(Cl)nc43)c2n1 — 11-fold lower, 359 nM
- O=S(=O)(NCCCNc1cc(-c2cn(-c3ccccc3)nc2-c2cccc(O)c2)ccn1)c1ccc(F)cc1 — 1.7-fold higher, 6730 nM

In the case of `O=C(c1cc(Cc2n[nH]c(=O)c3ccccc23)ccc1F)N1CCN(C(=O)C2CC2)CC1`, the GI50 is reported as 8290 nM and 13900 nM.
In the case of `N#CCNC(=O)c1ccc(-c2ccnc(Nc3ccc(N4CCOCC4)cc3)n2)cc1`, the GI50 is reported as 2690 nM and 2350 nM.
`O=c1[nH]c2ccccc2n1C1CCN(CCCC(c2ccc(F)cc2)c2ccc(F)cc2)CC1` was tested, and the GI50 was 1320 nM and 1500 nM.
For `CC1(C)[C@H](O)[C@H](F)C[C@@]2(C)Oc3ccc(C(=O)Nc4ccc5c(c4)NC(=O)C54CCN(CCCCC#N)CC4)cc3C[C@H]12`, the GI50 was 65.4 nM and 128 nM.

For `N#CCNC(=O)c1ccc(-c2ccnc(Nc3ccc(N4CCOCC4)cc3)n2)cc1`, the TGI was > 10000 nM and 11900 nM.
`O=c1[nH]c2ccccc2n1C1CCN(CCCC(c2ccc(F)cc2)c2ccc(F)cc2)CC1` was tested, and the TGI was 2830 nM and 4460 nM.
